Reference: patent US5773414A, “Endothelin antagonists” (Warner-Lambert Company, priority 1997, dated 1998)
Numbered stars: 1 amine (or outer) side, 2 acyl side, 3 side chain; on linkers, the order of the positions; unused ones are H or OH. Square brackets hold non-standard residues; d marks the D form. Peptide text beside a SMILES is read from it. X3 = Cc1c(C)c(C)c(C[C@@H](N[*:1])C(=O)[*:2])c(C)c1C; dDip = N[C@@H](C(=O)O)C(c1ccccc1)c1ccccc1; CO = O=C([*:1])[*:2]

Experiments:
ETA = biological target: T1, ETA (Oryctolagus cuniculus, UniProt A5A8K3); assay: Endothelin Receptor Binding Assay-A (ETA), intact cell binding of [125I]-ET-1; design: species or system rabbit; settings: Table IIa; rabbit renal artery vascular smooth muscle cells; read-out: Binding Assay IC50 at Receptor Subtypes ETA
T1 construct: The cells used were rabbit renal artery vascular smooth muscle cells; endogenous in cells; host or cells: rabbit renal artery vascular smooth muscle cells
T1 sequence (A5A8K3 21-427): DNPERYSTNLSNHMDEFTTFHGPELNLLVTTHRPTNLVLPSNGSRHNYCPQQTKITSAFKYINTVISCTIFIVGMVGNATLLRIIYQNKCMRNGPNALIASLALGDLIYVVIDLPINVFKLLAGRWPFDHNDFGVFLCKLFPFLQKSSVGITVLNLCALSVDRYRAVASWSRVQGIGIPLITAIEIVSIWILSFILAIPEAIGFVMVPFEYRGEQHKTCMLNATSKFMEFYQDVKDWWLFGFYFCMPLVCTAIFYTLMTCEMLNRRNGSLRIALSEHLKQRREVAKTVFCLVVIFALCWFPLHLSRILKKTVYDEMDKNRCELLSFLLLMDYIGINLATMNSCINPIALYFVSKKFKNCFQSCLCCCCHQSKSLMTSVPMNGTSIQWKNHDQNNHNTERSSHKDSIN
Procedure: The cells used were rabbit renal artery vascular smooth muscle cells grown in a 48-well dish (1 cm^2) (confluent cells).
The growth media was Dulbeccos Modified Eagles/Ham's F12 which contained 10 fetal bovine serum and antibiotics (penicillin/streptomycin/fungizone).
Second, remove the assay buffers, place the dish on ice, and add 150 μL of cold assay buffer described above to each well. […] Next, place dish in a 37° C. water bath for about 2 hours and gently agitate the dish every 15 minutes. Discard the radioactive incubation mixture in the sink and wash wells 3 times with 1 mL of cold phosphate buffered saline. Last, add […] of 0.25M sodium hydroxide, agitate for 1 hour on rotator, and then transfer the sodium hydroxide extract to gamma counting tubes and count the radioactivity.

ETB = biological target: T2, ETB (Rattus norvegicus, UniProt P21451); assay: Endothelin Receptor Binding Assay-B (ETB), [125I]-ET-1 binding in rat cerebellar membranes; settings: Table IIa; rat cerebellar membranes; read-out: Binding Assay IC50 at Receptor Subtypes ETB
T2 construct: thaw one aliquot of frozen rat cerebellar membranes; from tissue; host or cells: rat cerebellar membranes
T2 sequence (P21451 27-442): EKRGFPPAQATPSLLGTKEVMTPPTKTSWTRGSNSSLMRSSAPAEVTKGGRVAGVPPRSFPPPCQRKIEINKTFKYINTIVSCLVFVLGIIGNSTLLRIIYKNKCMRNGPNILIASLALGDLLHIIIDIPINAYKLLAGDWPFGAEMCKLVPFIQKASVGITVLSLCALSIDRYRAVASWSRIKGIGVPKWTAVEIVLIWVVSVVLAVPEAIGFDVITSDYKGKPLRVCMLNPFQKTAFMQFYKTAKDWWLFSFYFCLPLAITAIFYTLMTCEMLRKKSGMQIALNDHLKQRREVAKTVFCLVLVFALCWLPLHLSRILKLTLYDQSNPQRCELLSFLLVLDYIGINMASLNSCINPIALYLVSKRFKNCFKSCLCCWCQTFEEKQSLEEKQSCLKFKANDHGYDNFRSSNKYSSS
Procedure: The tissue is made up of 20 mM tris(hydroxymethyl)aminomethane hydrochloride (Trizma) buffer, 2 mM ethylenediaminetetraacetate, 100 μM phenylmethylsulfonyl fluoride.
First, thaw one aliquot of frozen rat cerebellar membranes (2 mg protein in 0.5 mL). Next, add 0.5 mL membrane aliquot to 4.5 mL cold tissue buffer, polytron at 7,500 revolutions per minute for 10 seconds. Finally, dilute tissue suspension 1/100 (0.1 mL suspension+9.9 mL tissue buffer), polytron again, and place ice.
Mix in 150 μL of tissue to each tube, vortex briefly, then tap to force all liquids to bottom (total assay volume=250 μL). Then place the tubes in a 37° C. water bath for 2 hours.
Add 2.5 mL cold water buffer (50 mM Trizma buffer) to each tube, filter, and then wash tube with additional 2.5 mL wash buffer and add to filter. Finally, wash filters with an additional 2.5 mL of cold wash buffer.
Count filters for radioactivity in gamma counter.

| IC50 (ETA) | IC50 (ETB) | Structure (SMILES) |
| --- | --- | --- |
| 97 nM | 630 nM | CC[C@H](C)[C@H](NC(=O)[C@H](CC(=O)O)NC(=O)[C@H](CC(C)C)NC(=O)[C@H](NC(C)=O)C(c1ccccc1)c1ccccc1)C(=O)N[C@H](C(=O)N[C@@H](Cc1c[nH]c2ccccc12)C(=O)O)C(C)C [Example 86, Ac--D--Dip--Leu--Asp--Ile--Val--Trp] (Ac-[dDip]LDIVW-OH) |
| 8000 nM | 350 nM | CC[C@H](C)[C@H](NC(=O)[C@H](Cc1ccc(O)cc1)NC(=O)[C@H](N)C(c1ccccc1)c1ccccc1)C(=O)N[C@H](C(=O)N[C@@H](Cc1c[nH]c2ccccc12)C(=O)O)[C@@H](C)CC [Example 95, D--Dip--Tyr--Ile--Ile--Trp] (H-[dDip]YIIW-OH) |
| 3500 nM | 330 nM | CC[C@H](C)[C@H](NC(=O)[C@H](C)NC(=O)[C@H](CC(=O)O)NC(=O)[C@H](CC(C)C)NC(=O)[C@@H](Cc1ccccc1)NC(C)=O)C(=O)N[C@@H](Cc1c[nH]c2ccccc12)C(=O)O [Example 73, Ac--D--Phe--Leu--Asp--Ala--Ile--Trp] (Ac-[dF]LDAIW-OH) |
| 400 nM | 300 nM | CC[C@H](C)[C@H](NC(=O)[C@H](CC(=O)O)NC(=O)[C@H](C)NC(=O)[C@@H](Cc1ccccc1)NC(C)=O)C(=O)N[C@H](C(=O)N[C@@H](Cc1c[nH]c2ccccc12)C(=O)O)[C@@H](C)CC [Example 59, Ac--D--Phe--Ala--Asp--Ile--Ile--Trp] (Ac-[dF]ADIIW-OH) |

Further lines, the molecule ahead of its results:

| Structure (SMILES) | IC50 (ETA) | IC50 (ETB) |
| --- | --- | --- |
| CC[C@H](C)[C@H](NC(=O)[C@H](CCC(=O)O)NC(=O)[C@H](CC(=O)O)NC(=O)[C@H](CC(C)C)NC(=O)[C@H](NC(C)=O)C(c1ccccc1)c1ccccc1)C(=O)N[C@@H](Cc1c[nH]c2ccccc12)C(=O)O [Example 19, Ac--D--Dip--Leu--Asp--Glu--Ile--Trp] (Ac-[dDip]LDEIW-OH) | 1000 nM | 6000 nM |
| CC[C@H](C)[C@H](NC(=O)[C@H](CC(=O)O)NC(=O)[C@H](CC(C)C)NC(=O)[C@@H](Cc1c(C)c(C)c(C)c(C)c1C)NC(C)=O)C(=O)N[C@H](C(=O)N[C@@H](Cc1c[nH]c2ccccc12)C(=O)O)[C@@H](C)CC [Example 53, Ac--D--Pmp--Leu--Asp--Ile--Ile--Trp] (Ac-[X3]LDIIW-OH) | 1500 nM | 5500 nM |
| CC[C@H](C)[C@H](NC(=O)[C@@H]1CCCN1C(=O)[C@H](CC(N)=O)NC(=O)[C@H](CC(C)C)NC(=O)[C@@H](Cc1ccccc1)NC(C)=O)C(=O)N[C@@H](Cc1c[nH]c2ccccc12)C(=O)O [Example 90, Ac--D--Phe--Leu--Asn--Pro--Ile--Trp] (Ac-[dF]LNPIW-OH) | 1980 nM | 2800 nM |
| CC[C@H](C)[C@H](NC(=O)[C@H](CC(=O)O)NC(=O)[C@H](CC(C)C)NC(=O)[C@H](NC(=O)NC)C(c1ccccc1)c1ccccc1)C(=O)N[C@H](C(=O)N[C@@H](Cc1c[nH]c2ccccc12)C(=O)O)[C@@H](C)CC [Example 37, Me(U) --D--Dip--Leu--Asp--Ile--Ile--Trp] ({NHMe-CO}-[dDip]LDIIW-OH) | 1000 nM | 1500 nM |
